Measured values as given in ChEMBL document CHEMBL1201862, “PubChem BioAssay data set” (2004).
The source made the active and inactive calls.

Columns and labels:
fMet-Leu-Phe receptor = target: T1, fMet-Leu-Phe receptor (Homo sapiens, UniProt P21462); assay: formyl peptide receptor binders – dose response (AID 519); assay type: functional
T1 sequence (P21462 whole entry): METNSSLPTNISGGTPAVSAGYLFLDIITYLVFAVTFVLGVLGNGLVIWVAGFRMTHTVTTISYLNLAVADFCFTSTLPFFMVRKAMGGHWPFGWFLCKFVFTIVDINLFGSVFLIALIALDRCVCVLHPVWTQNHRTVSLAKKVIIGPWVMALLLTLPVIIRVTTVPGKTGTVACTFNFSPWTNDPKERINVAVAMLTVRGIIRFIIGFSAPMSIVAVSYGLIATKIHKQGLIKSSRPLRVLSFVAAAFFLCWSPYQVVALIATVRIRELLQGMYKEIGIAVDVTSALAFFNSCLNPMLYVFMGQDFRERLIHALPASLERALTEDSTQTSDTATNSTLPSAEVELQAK

[1] = general mammalian cell viability loss – inhibitor set, cherry-pick, set 2, cytotoxicity control for miR-122 modulator project, dose response (AID 720697); assay type: functional, cell-based
[2] = luciferase reporter signal suppression in cells – H4 neuroglioma cells, luminescence, dose response (AID 1990); assay type: functional, cell-based
[3] = Luminescence Cell-Based Dose Response HTS to Identify Inhibitors of 5'UTR Stem-Loop Driven Prion Protein mRNA Translation in H4 Neuroglioblastoma Cells. [Related pubchem assays: 1827 (Project Summary), 1813 (Primary HTS)]; assay type: functional
[4] = alpha-synuclein stem-loop luciferase translation blockers – H4 neuroglioma cells, luminescence, confirmation (AID 1988); assay type: functional, cell-based
[5] = Trypanosoma cruzi growth suppression in host cells – NIH3T3 host cells, beta-gal luminescence, confirmation (AID 2044); assay type: functional, cell-based;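 also: intracellular parasites grown in NIH/3T3 mouse fibroblasts as host cells; luminescent beta-galactosidase reporter signal from transgenic T. cruzi replicating inside host cells; inhibitors lower the luminescence signal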
[6] = NIH3T3 cell viability loss – ATP luminescence, mouse fibroblasts, counter-screen, dose response (AID 2010); assay type: functional, cell-based;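 also: cells exposed to compound for about 90 hours before reading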
[7] = reduction of Shn3 3'UTR-driven luciferase in osteoblasts – cell-based, Clone20 osteoblasts, firefly luciferase, cherry-picked, dose response (AID 624132); assay type: functional;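 also: firefly luciferase luminescence from reporter carrying the Shn3 3'UTR in osteoblasts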
[8] = loss of viability in HepG2 cells – cell-based, CellTiter-Glo, cherry-picked, cytotoxicity control for Shn3 inhibitor project, dose response (AID 624134); assay type: functional
[9] = non-specific 3'UTR reporter inhibition in Clone20-Shn3RL – cell-based, Renilla luciferase, cherry-picked, counter-screen for Shn3 inhibitor project, dose response (AID 624133); assay type: functional
[10] = general mammalian cell viability loss – activator set, cherry-pick, cytotoxicity control for miR-122 modulator project, dose response (AID 720690); assay type: functional, cell-based;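 also: HEK293T human cells scored for general mammalian cytotoxicity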
BJ [11] = assay: BJ-TERT fibroblast viability loss – cell-based, RAS-independent, luminescence, dose response (AID 1933); assay type: functional; conditions: Homo sapiens
BJ [12] = assay: cells; assay type: functional, cell-based; conditions: Homo sapiens
BJ [13] = assay: BJ-TERT-LT-ST fibroblast viability loss – cell-based, RAS-independent, luminescence, dose response (AID 1935); assay type: functional; conditions: Homo sapiens;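 also: BJ fibroblasts immortalized with TERT plus LT and ST oncogenes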
[14] = DRD fibroblast viability loss – cell-based, non-viral oncogenic, luminescence, dose response (AID 1934); assay type: functional; conditions: Homo sapiens
BJ [15] = assay: growth inhibition of engineered Ras-driven BJ cells – cell-based, alamar blue fluorescence, cherrypicked samples, dose response (AID 2631); assay type: functional; conditions: Homo sapiens;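 also: confirmatory dose-response assay in RAS-dependent BJ fibroblasts engineered with TERT, LT and ST, with cytotoxicity read by fluorescence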
[16] = activation of miR-122 Renilla sensor silencing – cell-based, Huh7 psiCHECK-miR122, Renilla luciferase, cherry-picked, dose response (AID 651956); assay type: functional;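 also: huh7 hepatoma cells stably carrying a psiCHECK-2 miR-122 sensor plasmid; renilla luciferase signal reporting endogenous miR-122 activity after 48 h compound exposure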
Paired box protein Pax-8 = Paired box protein Pax-8 (Homo sapiens, UniProt Q06710); assay: PAX8 transcriptional activity inhibition in RMG-I – RMG-I cells, luciferase, cherry-pick, dose response (AID 687027); assay type: functional, cell-based;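 also: luciferase reporter driven by Pax8 target thyroperoxidase promoter measured by SteadyGlo luminescence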
Chain of Paired box protein Pax-8 (Q06710 whole entry): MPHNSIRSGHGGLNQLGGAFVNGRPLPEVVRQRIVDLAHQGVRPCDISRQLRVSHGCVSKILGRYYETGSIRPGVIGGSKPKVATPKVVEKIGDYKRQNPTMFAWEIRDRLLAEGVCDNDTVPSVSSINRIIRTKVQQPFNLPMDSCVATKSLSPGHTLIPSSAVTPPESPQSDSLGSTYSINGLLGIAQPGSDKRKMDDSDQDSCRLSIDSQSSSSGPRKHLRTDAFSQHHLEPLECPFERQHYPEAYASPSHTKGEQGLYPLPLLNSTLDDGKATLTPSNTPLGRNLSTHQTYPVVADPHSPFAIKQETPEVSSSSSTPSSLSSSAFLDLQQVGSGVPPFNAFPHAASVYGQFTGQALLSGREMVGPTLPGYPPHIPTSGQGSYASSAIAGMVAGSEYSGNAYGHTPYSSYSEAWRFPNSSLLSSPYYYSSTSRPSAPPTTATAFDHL

[17] = general cell-killing toxicity readout – plate reader, dry powder samples, cytotoxicity control for PAX8 inhibitor project, dose response (AID 743021); assay type: functional, cell-based
[18] = target: T2, Heat shock factor protein 1 (Mus musculus, UniProt P38532); assay: decrease of HSF1-responsive luciferase luminescence – cell-based, NIH3T3, dose retest, confirmation (AID 2382); assay type: functional;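 also: NIH3T3 fibroblasts with HSF1-driven luciferase reporter stressed by proteasome inhibitor MG132; luminescence from HSF1-driven luciferase expression after 8 hours of MG132 stress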
T2 sequence (P38532 whole entry): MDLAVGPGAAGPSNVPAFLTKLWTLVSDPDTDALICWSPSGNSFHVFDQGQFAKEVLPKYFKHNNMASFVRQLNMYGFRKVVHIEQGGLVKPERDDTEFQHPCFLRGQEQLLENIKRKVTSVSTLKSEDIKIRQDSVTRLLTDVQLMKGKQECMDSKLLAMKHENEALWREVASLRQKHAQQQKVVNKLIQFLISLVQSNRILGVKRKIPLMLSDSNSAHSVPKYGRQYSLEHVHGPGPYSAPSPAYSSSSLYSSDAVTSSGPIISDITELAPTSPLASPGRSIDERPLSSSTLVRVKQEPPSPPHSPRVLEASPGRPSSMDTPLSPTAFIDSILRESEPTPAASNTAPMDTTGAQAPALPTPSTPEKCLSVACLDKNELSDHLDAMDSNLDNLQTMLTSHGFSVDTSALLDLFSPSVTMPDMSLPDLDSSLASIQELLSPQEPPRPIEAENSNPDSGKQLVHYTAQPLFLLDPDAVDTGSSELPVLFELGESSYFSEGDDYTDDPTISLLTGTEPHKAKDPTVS

cells [19] = assay type: functional, cell-based
[20] = target: T3, Trace amine-associated receptor 1 (Homo sapiens, UniProt Q96RJ0); assay: Fluorescence-based cell-based high throughput dose response assay to identify agonists of the human trace amine associated receptor 1 (TAAR1).; assay type: functional
T3 sequence (Q96RJ0 whole entry): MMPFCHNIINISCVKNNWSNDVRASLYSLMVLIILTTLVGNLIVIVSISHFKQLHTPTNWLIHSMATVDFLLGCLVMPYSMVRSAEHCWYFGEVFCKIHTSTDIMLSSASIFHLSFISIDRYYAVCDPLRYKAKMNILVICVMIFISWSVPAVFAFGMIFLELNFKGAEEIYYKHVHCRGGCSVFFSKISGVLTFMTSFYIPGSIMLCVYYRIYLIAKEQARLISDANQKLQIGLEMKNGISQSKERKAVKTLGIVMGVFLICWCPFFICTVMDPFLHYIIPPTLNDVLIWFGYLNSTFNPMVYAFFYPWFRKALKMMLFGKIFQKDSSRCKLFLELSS

[21] = target: T3, Trace amine-associated receptor 1; assay: Counterscreen for agonists of the human trace amine associated receptor 1 (hTAAR1): Fluorescence-based cell-based high throughput dose response assay to identify hTAAR1 agonist that also desensitize TAAR1 receptor response.; assay type: functional
cells [22] = assay type: functional, cell-based; remark: listed apart in the source
[23] = viability loss in HeLa cells – cytotoxicity control for MgcRacGAP inhibitor project, dose response (AID 624300); assay type: functional
[24] = target: T4, Rac GTPase-activating protein 1 (Homo sapiens, UniProt Q9H0H5); assay: blockers of MgcRacGAP-driven Rac1 GTP hydrolysis – biochemical, ADP Hunter fluorescence, primary and confirmatory, confirmation (AID 624330); assay type: functional
T4 sequence (Q9H0H5 whole entry): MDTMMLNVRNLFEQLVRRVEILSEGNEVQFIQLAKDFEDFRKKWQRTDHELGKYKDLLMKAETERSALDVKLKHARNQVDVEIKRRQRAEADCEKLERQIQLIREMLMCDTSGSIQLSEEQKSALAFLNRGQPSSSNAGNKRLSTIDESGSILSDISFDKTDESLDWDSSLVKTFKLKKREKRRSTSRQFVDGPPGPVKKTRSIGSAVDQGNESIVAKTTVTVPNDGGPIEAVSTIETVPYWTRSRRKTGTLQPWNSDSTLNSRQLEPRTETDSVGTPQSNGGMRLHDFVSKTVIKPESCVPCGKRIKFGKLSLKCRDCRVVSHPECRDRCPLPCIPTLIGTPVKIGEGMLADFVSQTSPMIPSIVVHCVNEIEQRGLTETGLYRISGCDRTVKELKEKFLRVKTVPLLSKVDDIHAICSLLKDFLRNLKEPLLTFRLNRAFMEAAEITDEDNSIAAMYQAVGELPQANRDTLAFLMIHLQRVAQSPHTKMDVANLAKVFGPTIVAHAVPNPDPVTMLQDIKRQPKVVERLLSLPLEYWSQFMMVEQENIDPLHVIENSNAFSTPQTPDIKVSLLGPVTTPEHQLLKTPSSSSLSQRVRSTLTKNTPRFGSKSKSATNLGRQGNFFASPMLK

[25] = A549 cell cytotoxicity, dose response, cytotoxicity control, plate reader, cherry-pick, antagonist series (AID 743412); assay type: functional, cell-based
[26] = toxicity toward HepG2 liver cells – cell-based, plate reader, cherry-pick, antagonist series, cytotoxicity control, dose response (AID 743416); assay type: functional
[27] = blockers of bursicon-stimulated LGR2 cAMP reporter – cell-based, HEK293, CRE-luciferase reporter, cherry pick, set 2, dose response (AID 743343); assay type: functional;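 also: transfected cells were stimulated with diluted bursicon conditioned medium after compound addition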

With `CCOc1ccccc1NC(=O)CSc1nccn1-c1ccccc1` the Ki (fMet-Leu-Phe receptor) was > 66.7 µM (inactive).
In the case of `CCCC(=O)Nc1ccc2c(c1)C(=O)N(C)[C@@H]1CC[C@H](CC(=O)Nc3cn(C)nc3C)O[C@@H]1CO2`, the AC50 [1] is reported as 0.499 µM (active).
With `N#Cc1ccc(NC(=O)Nc2ccc(Oc3ccc(NC(=O)Nc4ccc(C#N)cc4)cc3)cc2)cc1` the EC50 [2] was > 120 µM (not active), the EC50 [3] was 10.1 µM (active) and the EC50 [4] was 8.67 µM (active). For the same compound, the EC50 [5] was 1.01 µM (active), the EC50 [6] was > 60 µM (not active) and the AC50 [7] was 2.68 µM (active). The AC50 [8] was 6.46 µM (active), the AC50 [9] was 13.1 µM (active) and the AC50 [1] was 5.02 µM (active). For the same compound, the AC50 [10] was 6.66 µM (active).
In the case of `Cc1onc(C(=O)N2CCN(C(c3ccccc3)c3ccccc3)CC2)c1[N+](=O)[O-]`, the EC50 (BJ [11]) is reported as 659 nM (inconclusive), the EC50 (BJ [12]) is reported as 5.65 µM (active) and the EC50 (BJ [13]) is reported as > 150 µM (not active). For the same compound, the EC50 [14] was 4.77 µM (active), the EC50 (BJ [15]) was 6.63 µM (active) and the AC50 [16] was 66.8 µM (active). For the same compound, the AC50 (Paired box protein Pax-8) was 5.28 µM (active), the AC50 [1] was 10.8 µM (active) and the AC50 [10] was 3.14 µM (active). For the same compound, the AC50 [17] was 3.3 µM (active).
For `C/C(=N\CCc1ccccc1)C1=C(O)SCC1=O`, the EC50 [18] was > 195 µM (not active), the IC50 (cells [19]) was > 29.9 µM (inactive) and the EC50 [20] was 1.55 µM (active). For the same compound, the IC50 [21] was 9.57 µM (active) and the EC50 (cells [22]) was > 29.9 µM (inactive).
With `Oc1ccc(-c2csc(-c3cccnc3)n2)c(O)c1` the CC50 [23] was 100 µM (active), the IC50 [24] was 30.9 µM (active) and the AC50 [25] was 23.6 µM (active). For the same compound, the AC50 [26] was 42.4 µM (active) and the AC50 [27] was 44.3 µM (active).
